The structures appear in SMILES notation.

For orientation: IC50 means the concentration needed to halve the response being measured.

In data set [1] the test system is AGS human gastric adenocarcinoma cell strain. The experiment in a line: CCK-8 cytotoxicity IC50, AGS. As to conditions: 72 h, read-out: cytotoxicity IC50.
Description: AGS human gastric adenocarcinoma cell strain (purchased from Shanghai Cell Resource Center, Chinese Academy of Sciences)
(§1) a) The compound was serially diluted with DMSO starting from 0.5 μM, using twice echelon dilution.
(§2) The logarithmic growth phase cells were collected and counted. The cells were re-suspended in complete medium, whose concentration was adjusted according to the test results of the cell density optimization, and then seeded into 96-well plates with 100 μl of the cell suspension to each well. The cells were incubated in a 37° C., 100% relative humidity, 5% CO2 incubator for 24 hours.
(§3) b) The test compound was diluted with the medium to the corresponding action concentrations set up, and added into the cells in the plates at 25 μl/well. The test compound was prepared in 9 final action concentrations, which were obtained by sequentially diluted from 500 nM using twice echelon dilution.
(§4) c) The cells were incubated in a 37° C., 100% relative humidity, 5% CO2 incubator for 72 hours.
(§5) d) The medium was removed from the cells, and a complete medium containing 10% CCK-8 was added and incubated in a 37° C. incubator for 1-4 hours.
(§6) e) After gentle shaking, the absorbance at 450 nm of the sample was measured on a SpectraMax M5 Microplate Reader, and the inhibition ratio was calculated using the absorbance at 650 nm as reference.
(§7) The inhibition ratio of the drug on tumor cell growth was calculated as follows: tumor cell growth inhibition %=[(Ac−As)/(Ac−Ab)]×100%
(§8) The IC50 curve was fitted and the IC50 value was calculated using the software Graphpad Prism 5 and using the calculation formula log(inhibitor) vs. normalized response-variable slope or log(inhibitor) vs. response-variable slope.
The test system of data set [2] is HT-1080 human fibrosarcoma cell strain. The experiment in a line: CCK-8 cytotoxicity IC50, HT-1080. The note with it: HT-1080, 72 h, read-out: cytotoxicity IC50.
Description: (§9) To test the cytotoxic IC50 values of 14 candidate compounds against 5 cell strains (MDA-MB-231, HT-1080, AGS, A-673 & HUVEC) using a CCK-8 test kit.
as §1, §2, §3, §4, §5, §6, §7, §8
Another data set deals with tubulin in HuVEC cells. The experiment in a line: Action on microtubule function, α-tubulin staining in HuVEC. It is filed as cell-based, human. As to conditions: 2 μM, 30 minutes, vs DMSO control. The text has this:
Human umbilical vein endothelial cells (HuVEC from Cambrex) were used in this study.

Data set [3] is described as follows: CCK-8 cytotoxicity IC50, HUVEC. The note with it: human, HUVEC umbilical vein endothelial cells.
Description: HUVEC human umbilical vein endothelial cell strain (purchased from ScienCell Research Laboratories, Cat #8000, Lot #11233)
as §1, §2, §3, §4, §5, §6, §7, §8
Data set [4] deals with MDA-MB-231 human breast cancer cell strain. The experiment in a line: CCK-8 cytotoxicity IC50, MDA-MB-231. The note with it: MDA-MB-231, 72 h, read-out: cytotoxicity IC50.
Description: as §9
MDA-MB-231 human breast cancer cell strain (purchased from Shanghai Cell Resource Center, Chinese Academy of Sciences)
as §1, §2, §3, §4, §5, §6, §7, §8
Data set [5] has as its system blood flow distribution in tissues and tumor tissue. The experiment in a line: Blood flow distribution of tissues and tumor. It is filed as in vivo, nude mice. As to conditions: two hours after administration, same pharmacodynamic dose, vs blank vehicle. From the text:
In this example, the effects of drugs on blood flow distribution of different tissues and organs at the same pharmacodynamic dose were simultaneously tested.

The subject of data set [6] is drug-resistant MES-SA cells (p-glycoprotein induced). The experiment in a line: Inhibitory effect on tumor proliferation, drug-resistant MES-SA transplanted tumor. It is filed as in vivo. The note with it: drug-resistant MES-SA nude mice, dose that does not reduce body weight, vs blank vehicle (FIG. 1). As for the experimental part: MES-SA cells (derived from ATCC) were cultured in low concentration of adriamycin for a long time to maintain sufficient cell viability and induced the expression of p-glycoprotein. After culturing for 10 months, the results of induced expression were detected by WB. After successful induction, the cells were cultured for one week in adriamycin-free medium. The tumor cells with adjusted concentration were inoculated into the armpit of nude mice. The transplanted tumors were treated with different drugs when they grew to a certain volume. Different doses of different drugs were administrated to blank mice to explore the drug dose not affecting the body weight of the animals, namely the dose to be administrated to treat the animals with transplanted tumors.

The test system of another data set is neutrophil count. Nature of the data set: Effect on the neutrophil count at equivalent pharmacodynamic dose. The note with it: rats, continuous administration for two weeks (FIG. 3).
For data set [7], the system named is A-673 human rhabdomyosarcoma cell strain. Nature of the data set: CCK-8 cytotoxicity IC50, A-673. The note with it: A673, 72 h, read-out: cytotoxicity IC50.
Description: as §9, §1, §2, §3, §4, §5, §6, §7, §8

Excerpt for neutrophil count: Multiple doses of different drugs were administrated to the nude mice respectively and the potency of the drugs in inhibiting the transplanted tumor in the nude mice was investigated. Base on the investigation, the equivalent dose of each drug was identified and converted to rat dose before administrated to the rats. That is, by administrating the rats with relatively equivalent pharmacodynamic dose, the effect of the drugs on the neutrophil count was examined. After continuously administration for two weeks, blood samples were collected and neutrophil counts were measured (FIG. 3).

As to `CC(C)(C)c1nc[nH]c1/C=c1\[nH]c(=O)/c(=C/C=C/c2cccc(F)c2)[nH]c1=O` [Compound 7], the IC50 in [1] came to 0.043 µM; in [2], 0.0436 µM; in [4], 0.0395 µM; in data set [7] it was 0.0354 µM. The cell membrane blebbing result in the data set on tubulin in HuVEC cells was “induced”. Besides, the microtubule depolymerization entry in the data set with tubulin in HuVEC cells is “induced”. For the same compound, in data set [3], the IC50 at 72 h is 0.0949 µM. The “distribution of blood flow in tissues except tumor tissues” value (“distribution of blood flow” below) in data set [5] is given as “did not significantly affect the distribution of blood flow in tissues except tumor tissues”. For the same compound, the “intratumoral blood flow distribution” value in data set [5] is listed as “can significantly reduce the intratumoral blood flow distribution”. In addition, the “anti-tumor proliferation effect (tumor weight)” value (“anti-tumor proliferation effect” for short) in data set [6] is on record as “can effectively exert anti-tumor proliferation effects”. For the same compound, the neutrophil count result in the data set with neutrophil count is “had no obvious effect on neutrophils”.
With `CC(C)(C)c1[nH]cnc1/C=c1\[nH]c(=O)/c(=C/C=C/c2ccc(OC(F)(F)F)cc2)[nH]c1=O` [Compound 10], the IC50 in data set [1] was 0.0949 µM; in data set [2], 0.224 µM; in [4] it was 0.105 µM; in data set [7] it was 0.165 µM. For the same compound, the cell membrane blebbing entry in the data set with tubulin in HuVEC cells is “induced”. The microtubule depolymerization result in the data set on tubulin in HuVEC cells was “induced”. Further, half-maximal inhibition in [3] (IC50 at 72 h) was put at 0.363 µM. Besides, in [5], the “distribution of blood flow” value is on record as “did not significantly affect the distribution of blood flow in tissues except tumor tissues”. The “intratumoral blood flow distribution” value in data set [5] was “can significantly reduce the intratumoral blood flow distribution”. The “anti-tumor proliferation effect” value in data set [6] is recorded as “can effectively exert anti-tumor proliferation effects”. In the data set with neutrophil count, the neutrophil count result is “had no obvious effect on neutrophils”.
As for `COc1ccc(/C=C/C=c2\[nH]c(=O)/c(=C/c3nc[nH]c3C(C)(C)C)[nH]c2=O)cc1` [Compound 12], the IC50 in data set [1] stood at 0.0353 µM; in data set [2] it was 0.137 µM; in [4], 0.0455 µM; in data set [7], 0.0373 µM. Further, the cell membrane blebbing entry with tubulin in HuVEC cells is listed as “induced”. Moreover, the microtubule depolymerization result in the data set with tubulin in HuVEC cells is “induced”. Further, half-maximal inhibition in [3] (IC50 at 72 h) required 0.0431 µM. The “distribution of blood flow” value in [5] is recorded as “did not significantly affect the distribution of blood flow in tissues except tumor tissues”. Also, in [5], the “intratumoral blood flow distribution” value is “can significantly reduce the intratumoral blood flow distribution”. In data set [6], the “anti-tumor proliferation effect” value is given as “can effectively exert anti-tumor proliferation effects”. In the data set with neutrophil count, the neutrophil count result is listed as “had no obvious effect on neutrophils”.
On to `CC(C)(C)c1[nH]cnc1/C=c1\[nH]c(=O)/c(=C/C=C/c2cccc(C#N)c2)[nH]c1=O` [Compound 15], for which the IC50 worked out at 0.0635 µM in data set [1], 0.0788 µM in data set [2], 0.123 µM in data set [4] and 0.0949 µM in [7]. Also, the cell membrane blebbing entry in the data set on tubulin in HuVEC cells was “induced”. In the data set with tubulin in HuVEC cells, the microtubule depolymerization result was “induced”. Besides, it took 0.0786 µM to reach half-maximal inhibition in [3] (IC50 at 72 h). In addition, the “distribution of blood flow” value in data set [5] is “did not significantly affect the distribution of blood flow in tissues except tumor tissues”. Moreover, the “intratumoral blood flow distribution” value in data set [5] is reported as “can significantly reduce the intratumoral blood flow distribution”. Besides, the “anti-tumor proliferation effect” value in [6] is listed as “can effectively exert anti-tumor proliferation effects”. Besides, the neutrophil count result with neutrophil count is listed as “had no obvious effect on neutrophils”.
With `CC(=O)O[C@H]1C(=O)[C@@]2(C)[C@H]([C@H](OC(=O)c3ccccc3)[C@]3(O)C[C@H](OC(=O)[C@H](O)[C@@H](NC(=O)c4ccccc4)c4ccccc4)C(C)=C1C3(C)C)[C@]1(OC(C)=O)CO[C@@H]1C[C@@H]2O` [Paclitaxel, paclitaxel, reference compound], the microtubule depolymerization result in the data set with tubulin in HuVEC cells is “did not induce microtubule depolymerization”.
In the case of `CC(C)(C)c1[nH]cnc1/C=C1\NC(=O)[C@H](Cc2ccccc2)NC1=O` [tert-butyl-phenylahistin, reference compound], in the data set on tubulin in HuVEC cells, the cell membrane blebbing entry is “induced” and the microtubule depolymerization entry was “induced”.

The values are drawn from patent publication US10640492B2, “Tubulin inhibitor” (SHENZHEN NEPTUNUS PHARMACEUTICAL RESEARCH INSTITUTE CO., …, priority 2016, dated 2020).
